How the values were obtained:
Assay type in all cases: physicochemical
[1] = Analysis of particle size by light microscope in light oil
Text: Samples of crystalline pantoprazole magnesium Forms A (prepared according to example 15), E, F, G, and H were each analyzed by light microscope in light oil. The results are depicted in FIGS. 29-33, respectively.

[2] = Solubility in water at 25° C. (saturated solution, HPLC assay); conditions: for solubility: in water at 25° C.
Procedure: The solubilities of amorphous pantoprazole magnesium and pantoprazole magnesium Form A were each measured in water at 25° C. The certain amount of amorphous sample and form A sample were added each to 50 ml of distillated water. The solutions were kept saturated during the experiment. The aliquots were taken, filtered and injected into HPLC by the method of assay determination for PNT-Mg and the concentrations were calculated by comparison of absorptions at certain wavelength against the known concentration of PNT-Mg standard.

[3] = Stability of crystalline form under heating (100° C., two weeks, PXRD); conditions: heated at 100° C. for two weeks, analyzed by PXRD
Procedure: The powder X-ray diffraction was performed on Scintag X-ray powder diffractometer model X'TRA with a solid state detector. Copper radiation of 1.5418 Å was used. The sample holder was a round standard aluminum sample holder with rough zero background. The scanning parameters were range: 2-40 degrees two-theta; scan mode: continuous scan; step size: 0.05 deg.; and at a rate of 5 deg/min.
Samples of crystalline pantoprazole magnesium Form C and Form A (prepared according to example 15) were each heated at 100° C. for two weeks. The samples were then analyzed by PXRD.

Substance | particle shape / description [1] | particle size [1] | also measured
5-difluoromethoxy-2-[[3,4-dimethoxy-2-pyridinyl)methyl]sulfinyl]-1H-benzimidazole magnesium salt [Form E] | plate-shaped particles | less than 20 microns | –
5-difluoromethoxy-2-[[3,4-dimethoxy-2-pyridinyl)methyl]sulfinyl]-1H-benzimidazole magnesium salt [amorphous pantoprazole magnesium] | – | – | solubility [2]: about 1.3 mg/ml; solubility in water relative to crystalline Form A ([2]; in water, amorphous form versus Form A prepared according to the '464 patent): approximately 6.5 times
5-difluoromethoxy-2-[[3,4-dimethoxy-2-pyridinyl)methyl]sulfinyl]-1H-benzimidazole magnesium salt [Form G] | – | less than 10 microns | –
5-difluoromethoxy-2-[[3,4-dimethoxy-2-pyridinyl)methyl]sulfinyl]-1H-benzimidazole magnesium salt [Form H] | very small particles | – | –
5-difluoromethoxy-2-[[3,4-dimethoxy-2-pyridinyl)methyl]sulfinyl]-1H-benzimidazole magnesium salt [Form F] | spherical particles | – | –
5-difluoromethoxy-2-[[3,4-dimethoxy-2-pyridinyl)methyl]sulfinyl]-1H-benzimidazole magnesium salt [Form A, reference compound] | plate-shaped particles | less than 50 microns | solubility [2]: about 0.2 mg/ml; crystalline form after heating (polymorphic stability) [3]: transformed to amorphous form
5-difluoromethoxy-2-[[3,4-dimethoxy-2-pyridinyl)methyl]sulfinyl]-1H-benzimidazole magnesium salt [Form C] | – | – | crystalline form after heating (polymorphic stability) [3]: maintained its crystalline form

Source: patent US20080139623A1, “Amorphous and crystalline forms of pantoprazole magnesium salt” (priority 2006, published 2008)
